# Source: US20250179061A1 (SIRONAX LTD., priority 2022, published 2025)
# Tested on: HT-29 cells
# Assay: HT-29 necroptosis cell viability assay (TNF-α/SMAC mimetic/zVAD-FMK, CellTiter-Glo)
# Format: cell-based
# Conditions: Homo sapiens, HT-29, HT-29 cells, necroptosis induced by TNF-α/SMAC mimetic/zVAD-FMK, CellTiter-Glo; read-out: Activity (IC50 class)
# Procedure, shortened: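 Necroptosis was triggered by TNF-α (10 ng/ml), SMAC mimetic (6 μM) and zVAD-FMK (10 μM) in serum-free medium during 20 h compound exposure (10 concentrations, threefold steps) of HT-29 cells. IC50 from duplicate dose-responses uses CellTiter-Glo ATP luminescence as viability read-out.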
row,Structure (SMILES),IC50
1,"Cc1nc(C2=CCOCC2)sc1Oc1ccc(-n2ncn(Cc3c(F)cccc3F)c2=O)cc1 [Example 631, 4-(2,6-difluorobenzyl)-2-(4-((2-(3,6-dihydro-2H-pyran-4-yl)-4-methylthiazol-5-yl)oxy)phenyl)-2,4-dihydro-3H-1,2,4-triazol-3-one]",< 100 nM
2,"Cc1nc(C2=CCOC2)sc1Oc1ccc(-n2ncn(Cc3c(F)cccc3F)c2=O)cc1 [Example 632, 4-(2,6-difluorobenzyl)-2-(4-((2-(2,5-dihydrofuran-3-yl)-4-methylthiazol-5-yl)oxy)phenyl)-2,4-dihydro-3H-1,2,4-triazol-3-one]",< 100 nM
3,"Cc1nc(C2=NCCN2C)sc1Oc1ccc(-n2ncn(Cc3c(F)cccc3F)c2=O)cc1 [Example 633, 4-(2,6-difluorobenzyl)-2-(4-((4-methyl-2-(1-methyl-4,5-dihydro-1H-imidazol-2-yl)thiazol-5-yl)oxy)phenyl)-2,4-dihydro-3H-1,2,4-triazol-3-one]",< 100 nM
4,"Cc1nc(C=O)sc1Oc1ccc(-n2ncn(Cc3c(F)cccc3F)c2=O)cc1F [Example 634, 5-[4-[4-[(2,6-difluorophenyl)methyl]-5-oxo-1,2,4-triazol-1-yl]-2-fluoro-phenoxy]-4-methyl-thiazole-2-carbaldehyde]",< 100 nM

# Same assay, conditions: Homo sapiens, HT-29, HT-29 necroptosis cell viability assay; class symbols for IC50; read-out: Activity
row,Structure (SMILES),IC50
1,"Cc1nc(C(=O)N2CC(N)C2)sc1Oc1ccc(-n2ncn(Cc3ccccc3F)c2=O)cc1F [Example 600, 2-(4-((2-(3-aminoazetidine-1-carbonyl)-4-methylthiazol-5-yl)oxy)-3-fluorophenyl)-4-(2-fluorobenzyl)-2,4-dihydro-3H-1,2,4-triazol-3-one]",< 100 nM
2,"Cc1nc(C(=O)NC2COC2)sc1Oc1ccc(-n2ncn(Cc3ccccc3F)c2=O)cc1F [Example 603, 5-(2-fluoro-4-(4-(2-fluorobenzyl)-5-oxo-4,5-dihydro-1H-1,2,4-triazol-1-yl)phenoxy)-4-methyl-N-(oxetan-3-yl)thiazole-2-carboxamide]",< 100 nM
3,"Cc1nc(C(=O)NCC2COC2)sc1Oc1ccc(-n2ncn(Cc3ccccc3F)c2=O)cc1F [Example 604, 5-(2-fluoro-4-(4-(2-fluorobenzyl)-5-oxo-4,5-dihydro-1H-1,2,4-triazol-1-yl)phenoxy)-4-methyl-N-(oxetan-3-ylmethyl)thiazole-2-carboxamide]",< 100 nM
4,"Cc1nc(C(=O)N2CC3(COC3)C2)sc1Oc1ccc(-n2ncn(Cc3ccccc3F)c2=O)cc1F [Example 605, 2-(3-fluoro-4-((4-methyl-2-(2-oxa-6-azaspiro[3.3]heptane-6-carbonyl)thiazol-5-yl)oxy)phenyl)-4-(2-fluorobenzyl)-2,4-dihydro-3H-1,2,4-triazol-3-one]",< 100 nM
5,"Cc1nc(C(N)=O)sc1Oc1ccc(-n2ncn(Cc3ncccc3F)c2=O)cc1F [Example 606, 5-(2-fluoro-4-(4-((3-fluoropyridin-2-yl)methyl)-5-oxo-4,5-dihydro-1H-1,2,4-triazol-1-yl)phenoxy)-4-methylthiazole-2-carboxamide]",< 100 nM
6,"Cc1nc(C(=O)NCC2COC2)sc1Oc1ccc(-n2ncn(Cc3ncccc3F)c2=O)cc1F [Example 607, 5-(2-fluoro-4-(4-((3-fluoropyridin-2-yl)methyl)-5-oxo-4,5-dihydro-1H-1,2,4-triazol-1-yl)phenoxy)-4-methyl-N-(oxetan-3-ylmethyl)thiazole-2-carboxamide]",< 100 nM
7,"Cc1nc(C(=O)N2CC(C)(O)C2)sc1Oc1ccc(-n2ncn(Cc3ncccc3F)c2=O)cc1F [Example 608, 2-(3-fluoro-4-((2-(3-hydroxy-3-methylazetidine-1-carbonyl)-4-methylthiazol-5-yl)oxy)phenyl)-4-((3-fluoropyridin-2-yl)methyl)-2,4-dihydro-3H-1,2,4-triazol-3-one]",< 100 nM
8,"CNC(=O)c1nc(C)c(Oc2ccc(-n3ncn(Cc4c(F)cccc4F)c3=O)cc2F)s1 [Example 609, 5-(4-(4-(2,6-difluorobenzyl)-5-oxo-4,5-dihydro-1H-1,2,4-triazol-1-yl)-2-fluorophenoxy)-N,4-dimethylthiazole-2-carboxamide]",< 100 nM
9,"CCNC(=O)c1nc(C)c(Oc2ccc(-n3ncn(Cc4c(F)cccc4F)c3=O)cc2F)s1 [Example 610, 5-(4-(4-(2,6-difluorobenzyl)-5-oxo-4,5-dihydro-1H-1,2,4-triazol-1-yl)-2-fluorophenoxy)-N-ethyl-4-methylthiazole-2-carboxamide]",< 100 nM
10,"Cc1nc(C(=O)N(C)C)sc1Oc1ccc(-n2ncn(Cc3c(F)cccc3F)c2=O)cc1F [Example 611, 5-(4-(4-(2,6-difluorobenzyl)-5-oxo-4,5-dihydro-1H-1,2,4-triazol-1-yl)-2-fluorophenoxy)-N,N,4-trimethylthiazole-2-carboxamide]",< 100 nM
11,"Cc1nc(NC(=O)OC(C)(C)C)sc1Sc1ccc(-n2ncn(Cc3ccccc3)c2=O)cc1 [Example 612, tert-butyl (5-((4-(4-benzyl-5-oxo-4,5-dihydro-1H-1,2,4-triazol-1-yl)phenyl)thio)-4-methylthiazol-2-yl)carbamate]",< 100 nM
12,"Cc1nc(C2(N)CC2)sc1Oc1ccc(-n2ncn(Cc3c(F)cccc3F)c2=O)cc1F [Example 613, 2-(4-((2-(1-aminocyclopropyl)-4-methylthiazol-5-yl)oxy)-3-fluorophenyl)-4-(2,6-difluorobenzyl)-2,4-dihydro-3H-1,2,4-triazol-3-one]",< 100 nM
13,"Cc1nc(C2(N)COC2)sc1Oc1ccc(-n2ncn(Cc3c(F)cccc3F)c2=O)cc1F [Example 614, 2-(4-((2-(3-aminooxetan-3-yl)-4-methylthiazol-5-yl)oxy)-3-fluorophenyl)-4-(2,6-difluorobenzyl)-2,4-dihydro-3H-1,2,4-triazol-3-one]",< 100 nM
14,"N#Cc1cc(S(=O)(=O)c2ccc(-n3ncn(Cc4ccccc4)c3=O)cc2)ccn1 [Example 615, 4-((4-(4-benzyl-5-oxo-4,5-dihydro-1H-1,2,4-triazol-1-yl)phenyl)sulfonyl)picolinonitrile]",< 100 nM
15,"COc1cc(S(=O)(=O)c2ccc(-n3ncn(Cc4ccccc4)c3=O)cc2)ccn1 [Example 616, 4-benzyl-2-(4-((2-methoxypyridin-4-yl)sulfonyl)phenyl)-2,4-dihydro-3H-1,2,4-triazol-3-one]",< 100 nM
16,"COc1cc(S(=O)(=O)c2ccc(-n3nc4n(c3=O)C(c3ccccc3)CC4)cc2)ccn1 (centres unmarked) [Example 617, 2-(4-((2-methoxypyridin-4-yl)sulfonyl)phenyl)-5-phenyl-2,5,6,7-tetrahydro-3H-pyrrolo[2,1-c][1,2,4]triazol-3-one]",< 100 nM
17,"COc1cc(S(=O)(=O)c2ccc(-n3ncn(Cc4c(F)cccc4F)c3=O)cc2)ccn1 [Example 618, 4-(2,6-difluorobenzyl)-2-(4-((2-methoxypyridin-4-yl)sulfonyl)phenyl)-2,4-dihydro-3H-1,2,4-triazol-3-one]",< 100 nM
18,"Cc1nn(-c2ccc(S(=O)(=O)N3CCN(C4CCCC4)CC3)cc2)c(=O)n1Cc1ccccc1 [Example 619, 4-benzyl-2-(4-((4-cyclopentylpiperazin-1-yl)sulfonyl)phenyl)-5-methyl-2,4-dihydro-3H-1,2,4-triazol-3-one]",> 10000 nM
19,"Cc1nn(-c2ccc(S(=O)(=O)N3CCN(C4CCCCC4)CC3)cc2)c(=O)n1Cc1ccccc1 [Example 620, 4-benzyl-2-(4-((4-cyclohexylpiperazin-1-yl)sulfonyl)phenyl)-5-methyl-2,4-dihydro-3H-1,2,4-triazol-3-one]",1000 to 10000 nM
20,"Cc1nn(-c2ccc(S(=O)(=O)N3CCN(C4CCOCC4)CC3)cc2)c(=O)n1Cc1ccccc1 [Example 621, 4-benzyl-5-methyl-2-(4-((4-(tetrahydro-2H-pyran-4-yl)piperazin-1-yl)sulfonyl)phenyl)-2,4-dihydro-3H-1,2,4-triazol-3-one]",> 10000 nM
21,"Cc1nn(-c2ccc(S(=O)(=O)N3CCN(CC4CCOCC4)CC3)cc2)c(=O)n1Cc1ccccc1 [Example 622, 4-benzyl-5-methyl-2-(4-((4-((tetrahydro-2H-pyran-4-yl)methyl)piperazin-1-yl)sulfonyl)phenyl)-2,4-dihydro-3H-1,2,4-triazol-3-one]",100 to 1000 nM
22,Cc1nn(-c2ccc(S(=O)(=O)N3CCN(C4COC4)CC3)cc2)c(=O)n1Cc1ccccc1 [Example 623],> 10000 nM
23,Cc1nn(-c2ccc(S(=O)(=O)N3CCN(CC4CCC4)CC3)cc2)c(=O)n1Cc1ccccc1 [Example 624],1000 to 10000 nM
24,"Cc1nn(-c2ccc(S(=O)(=O)N3CCN(CC4CCOC4)CC3)cc2)c(=O)n1Cc1ccccc1 (centres unmarked) [Example 625, 4-benzyl-5-methyl-2-(4-((4-((tetrahydrofuran-3-yl)methyl)piperazin-1-yl)sulfonyl)phenyl)-2,4-dihydro-3H-1,2,4-triazol-3-one]",100 to 1000 nM
25,"Cc1nn(-c2ccc(S(=O)(=O)N3CCN(C4CCCOC4)CC3)cc2)c(=O)n1Cc1ccccc1 (centres unmarked) [Example 626, 4-benzyl-5-methyl-2-(4-((4-(tetrahydro-2H-pyran-3-yl)piperazin-1-yl)sulfonyl)phenyl)-2,4-dihydro-3H-1,2,4-triazol-3-one]",1000 to 10000 nM
26,"Cc1nc(N)sc1S(=O)(=O)c1ccc(-n2ncn(Cc3ccccc3)c2=O)cc1 [Example 627, 2-(4-((2-amino-4-methylthiazol-5-yl)sulfonyl)phenyl)-4-benzyl-2,4-dihydro-3H-1,2,4-triazol-3-one]",100 to 1000 nM
27,"Cc1nc(NC(=O)OC(C)(C)C)sc1S(=O)(=O)c1ccc(-n2ncn(Cc3ccccc3)c2=O)cc1 [Example 629, tert-butyl (5-((4-(4-benzyl-5-oxo-4,5-dihydro-1H-1,2,4-triazol-1-yl)phenyl)sulfonyl)-4-methylthiazol-2-yl)carbamate]",100 to 1000 nM
28,"N#Cc1cc(Oc2ccc(-n3ncn(Cc4c(F)cccc4F)c3=O)cc2)ncn1 [Example 630, 6-(4-(4-(2,6-difluorobenzyl)-5-oxo-4,5-dihydro-1H-1,2,4-triazol-1-yl)phenoxy)pyrimidine-4-carbonitrile]",1000 to 10000 nM
